According to patent publication US9931331B2 (priority 2013, dated 2018):

Key:
[1] = tested on: cervical cancer cell (HeLa); experiment: Cell viability (calcein-AM / ethidium homodimer-1), HeLa; settings: Homo sapiens, 24 h
Experimental: (§1) Strains of cervical cancer cell (HeLa), kidney cancer cell (Caki-1), brain tumor cell (T98G), breast cancer cell (MDA-MB 435S), and colon cancer cell (DLD-1), multiple myeloma cell (RPMI-8226), and a strain of normal breast epithelial cell (MCF-10A) were available from ATCC (American Type Culture Collection, USA). The strains of cervical cancer cell (HeLa), kidney cancer cell (Caki-1), brain tumor cell (T98G), breast cancer cell (MDA-MB 435S), and colon cancer cell (DLD-1) were cultured by using a DMEM medium including 10% fetal bovine serum (FBS), 2 mM of L-glutamin, 100 i.u./ml of penicillin, and […] of streptomycin for the culture and maintenance; multiple myeloma cell (RPMI-8226) was cultured by using a RPMI1640 medium including 10% FBS, 100 i.u./ml of penicillin, and […] of streptomycin; and the strain of normal breast epithelial cell (MCF-10A) was cultured by using a mammary epithelial growth medium (MEGM) including a bovine pituitary extract, insulin, human epidermal growth factor, hydrocortisone, and antibiotics, and the culture conditions included 37° C. and 5% CO2 in an incubator.
(§2) Then, the cells were stained by using 2 μM calcein-AM and 4 μM ethidium homodimer-1, and cell viability was measured by using a fluorescent microscope (Axiovert 200M, available from Carl Zeiss, Jena, Germany).

[2] = tested on: kidney cancer cell (Caki-1); experiment: Cell viability (calcein-AM / ethidium homodimer-1), Caki-1; settings: Homo sapiens, CAKI-1, 24 h
Experimental: as §1, §2

[3] = tested on: brain tumor cell (T98G); experiment: Cell viability (calcein-AM / ethidium homodimer-1), T98G; settings: Homo sapiens, 24 h
Experimental: as §1, §2

[4] = tested on: colon cancer cell (DLD-1); experiment: Cell viability (calcein-AM / ethidium homodimer-1), DLD-1; settings: Homo sapiens, DLD-1, 24 h
Experimental: as §1, §2

[5] = tested on: multiple myeloma cell (RPMI-8226); experiment: Cell viability (calcein-AM / ethidium homodimer-1), RPMI-8226; settings: Homo sapiens, RPMI-8226, 24 h, read-out: Cell viability
Experimental: as §1, §2

[6] = tested on: breast cancer cell (MDA-MB 435S); experiment: Cell viability (calcein-AM / ethidium homodimer-1), MDA-MB 435S; settings: 24 h
Experimental: as §1, §2

[7] = in vitro; settings: human
Experimental: as §1, §2

[8] = read-out: cell viability decreased
[9] = Homo sapiens, MDA-MB-435S, read-out: Cell viability
[10] = Homo sapiens, MDA-MB-435S, read-out: cell viability decreased

CC(C)C[C@H](NC(=O)[C@H](Cc1ccccc1)NC(=O)c1cnccn1)B(O)O [Bortezomib, N-(2-pyrazine)carbonyl-L-phenylalanine-L-leucine boronic acid]
viability at 0.02 µM ([1]; read-out: Cell viability): 100% | viability at 0.04 µM ([1]; read-out: Cell viability): 90.8% | cytotoxicity at 0.04 µM [1, 8]: ~10% | viability at 0.01 µM ([2]; read-out: Cell viability): 100% | viability at 0.02 µM ([2]; read-out: Cell viability): 78% | cytotoxicity at 0.02 µM [2, 8]: ~22% | viability at 0.005 µM ([3]; read-out: Cell viability): 99.7% | viability at 0.01 µM ([3]; read-out: Cell viability): 89.7% | viability at 0.04 µM ([4]; read-out: Cell viability): 99.7% | viability at 0.06 µM ([4]; read-out: Cell viability): 95% | viability at 0.001 µM [5]: 100% | viability at 0.002 µM [5]: 81.7% | viability at 0.0075 µM [6, 9]: 100% | viability at 0.015 µM [6, 9]: 91% | cancer cell toxicity ([6]; MDA-MB 435S, bortezomib alone up to 15 nM): did not induce cancer cell toxicity | viability at 24 h, 15 nM [7]: 98.8% | viability at 24 h, 30 nM [7]: 94.6%

CC(C)C[C@H](NC(=O)[C@H](CCc1ccccc1)NC(=O)CN1CCOCC1)C(=O)N[C@@H](Cc1ccccc1)C(=O)N[C@@H](CC(C)C)C(=O)[C@@]1(C)CO1 [Carfilzomib]
viability at 0.05 µM ([1]; read-out: Cell viability): 90% | viability at 0.1 µM ([1]; read-out: Cell viability): 89.8% | cytotoxicity at 0.1 µM [1, 8]: ~10% | viability at 0.05 µM ([2]; read-out: Cell viability): 95.6% | viability at 0.1 µM ([2]; read-out: Cell viability): 95.2% | viability at 0.02 µM ([3]; read-out: Cell viability): 100% | viability at 0.04 µM ([3]; read-out: Cell viability): 93% | viability at 0.1 µM ([4]; read-out: Cell viability): 98.2% | viability at 0.2 µM ([4]; read-out: Cell viability): 94.7% | viability at 0.005 µM [5]: 95.8% | viability at 0.01 µM [5]: 63.4% | viability at 0.025 µM [6, 9]: 87.1% | viability at 0.05 µM [6, 9]: 84.4% | cytotoxicity at 0.05 µM [6, 10]: ~15% | viability at 24 h, 50 nM [7]: 99.5% | viability at 24 h, 100 nM [7]: 98.1%

CC1=C(O)C(=O)C=C2C1=CC=C1[C@@]2(C)CC[C@@]2(C)[C@@H]3C[C@](C)(C(=O)O)CC[C@]3(C)CC[C@]12C [Celastrol]
viability at 0.5 µM ([1]; read-out: Cell viability, HeLa, celastrol 0.5 μM alone): 100% | viability at 1 µM ([1]; read-out: Cell viability, HeLa, celastrol 1 μM alone): 88.4% | cytotoxicity at 1 µM [1, 8]: ~11% | viability at 1 µM ([2]; read-out: Cell viability): 100% | viability at 2 µM ([2]; read-out: Cell viability): 69.6% | cytotoxicity at 2 µM [2, 8]: ~30% | viability at 1 µM ([3]; read-out: Cell viability, T98G, celastrol 1 μM alone): 100% | viability at 2 µM ([3]; read-out: Cell viability, T98G, celastrol 2 μM alone): 91.3% | cytotoxicity at 2 µM [3, 8]: ~9% | viability at 0.5 µM ([4]; read-out: Cell viability): 90.5% | viability at 1 µM ([4]; read-out: Cell viability): 88.7% | cytotoxicity at 1 µM [4, 8]: ~11% | viability at 0.05 µM [5]: 90.7% | viability at 0.1 µM [5]: 69% | viability at 0.25 µM [6, 9]: 100% | viability at 0.5 µM [6, 9]: 92.5% | cytotoxicity at 0.5 µM ([6]; Homo sapiens, MDA-MB-435S, read-out: cell viability decreased, MDA-MB 435S, celastrol alone 0.5 μM): ~7% | viability at 24 h, 0.25 μM ([7]; Cell viability, MCF-10A, celastrol 0.25 μM alone, 24 h): 98.9% | viability at 24 h, 0.5 μM ([7]; Cell viability, MCF-10A, celastrol 0.5 μM alone, 24 h): 95.9%

COc1cc(/C=C/C(=O)CC(=O)/C=C/c2ccc(O)c(OC)c2)ccc1O [Curcumin]
viability at 10 µM ([1]; read-out: Cell viability): 100% | viability at 20 µM ([1]; read-out: Cell viability): 91.3% | cytotoxicity at 20 µM [1, 8]: ~9% | viability at 15 µM ([2]; read-out: Cell viability): 78.5% | viability at 30 µM ([2]; read-out: Cell viability): 68.2% | cytotoxicity at 30 µM [2, 8]: ~32% | viability at 10 µM ([3]; read-out: Cell viability): 99.7% | viability at 20 µM ([3]; read-out: Cell viability): 96.5% | viability at 20 µM ([4]; read-out: Cell viability): 96.7% | viability at 30 µM ([4]; read-out: Cell viability): 89% | viability at 10 µM [5]: 93.6% | viability at 20 µM [5]: 61.9% | viability at 10 µM [6, 9]: 70.7% | viability at 20 µM [6, 9]: 58.8% | cytotoxicity at 20 µM [6, 10]: ~41% | viability at 24 h, 10 μM [7]: 97.7% | viability at 24 h, 20 μM [7]: 95.9%
